Test results taken from article PMC6271088, “Quantification of the Resveratrol Analogs trans-2,3-Dimethoxy-stilbene and trans-3,4-Dimethoxystilbene in Rat Plasma: Application to Pre-Clinical Pharmacokinetic Studies” (Molecules, 2014).
“Also recorded” adds a separate entry of the source. Where two headings read alike, the source gives them in different places.

Assays:
[1] = cited from earlier work
[2] = Stock solution stability (DMSO stock, room temperature); format: physicochemical; settings: Stock solution stored at 24 °C for 8 days, read-out: Stability (% Remained)
Method: (§1) Stock solutions of analytes were prepared in DMSO to a final concentration of 1 mg/mL, stored at room temperature (24 °C) and protected from light. The internal standard (IS) (trans-stilbene) was prepared by dissolving in acetonitrile and diluted to 100 ng/mL (working solution). Equal volumes of rat liver microsome (RLM) and trans-stilbene–acetonitrile working solution were mixed to quench the reaction. After vigorous vortexing for 20 s, the samples were centrifuged at 6,000 g for 10 min at 4 °C. Rat plasma samples were processed by adding trans-stilbene–acetonitrile working solution to rat plasma in 3:1 ratio. After vigorous vortexing for 20 s, the samples were centrifuged at 10,000 g for 4 min at 4 °C. Finally, the supernatant was transferred into a glass insert that was pre-installed in a 1.5 mL auto-sampler vial. During each assay, 75 µL supernatant was injected into the HPLC-UV system.
Stabilities of 2,3-DMS in stock solution were evaluated after storage at room temperature for eight days. Stability of 2,3-DMS in rat plasma under different conditions was profiled with QC samples. Freeze-thaw stability was assessed after three freeze (−80 °C)–thaw (24 °C) cycles. Short-term room temperature stability (24 °C) of 2,3-DMS in rat plasma was examined after storing such samples at room temperature for 6 h. […] The stability of 3,4-DMS was assessed in the same way. […]

[3] = Stability in rat plasma (QC samples: short-term, freeze-thaw, long-term); format: in vitro ADME; settings: read-out: Stability (% Remained); for remaining at 25 ng/mL / remaining at 400 ng/mL / remaining at 1400 ng/mL: Plasma samples after three freeze-thaw cycles; for remaining at 25 ng/mL / remaining at 6 h, 25 ng/mL / remaining at 240 h, 25 ng/mL: spiked 25 ng/mL; for remaining at 400 ng/mL / remaining at 6 h, 400 ng/mL / remaining at 240 h, 400 ng/mL: spiked 400 ng/mL; for remaining at 1400 ng/mL / remaining at 6 h, 1400 ng/mL / remaining at 240 h, 1400 ng/mL: spiked 1400 ng/mL; for remaining at 6 h, 25 ng/mL / remaining at 6 h, 400 ng/mL / remaining at 6 h, 1400 ng/mL: Plasma samples stored at 4 °C for 6 h; for remaining at 240 h, 25 ng/mL / remaining at 240 h, 400 ng/mL / remaining at 240 h, 1400 ng/mL: Plasma samples stored at −80 °C for 10 days
Method: Stabilities of 2,3-DMS in stock solution were evaluated after storage at room temperature for eight days. Stability of 2,3-DMS in rat plasma under different conditions was profiled with QC samples. Freeze-thaw stability was assessed after three freeze (−80 °C)–thaw (24 °C) cycles. […] Long-term storage stability of 2,3-DMS in rat plasma was studied after being stored at −80 °C for 10 days. Post-preparative stability study was conducted by re-analyzing samples (kept in auto-sampler vial at room temperature) 24 h later. The stability of 3,4-DMS was assessed in the same way. Samples were considered stable if analytical responses were within 100% ± 15% of corresponding freshly prepared samples.

[4] = Post-preparative stability (processed samples in auto-sampler vial); format: physicochemical; settings: rat, Post-preparative samples stored at 24 °C for 24 h, read-out: Stability (% Remained); for remaining at 24 h, 25 ng/mL: spiked 25 ng/mL; for remaining at 24 h, 400 ng/mL: spiked 400 ng/mL; for remaining at 24 h, 1400 ng/mL: spiked 1400 ng/mL
Method: as §1
Stabilities of 2,3-DMS in stock solution were evaluated after storage at room temperature for eight days. Stability of 2,3-DMS in rat plasma under different conditions was profiled with QC samples. Freeze-thaw stability was assessed after three freeze (−80 °C)–thaw (24 °C) cycles. Short-term room temperature stability (24 °C) of 2,3-DMS in rat plasma was examined after storing such samples at room temperature for 6 h. Long-term storage stability of 2,3-DMS in rat plasma was studied after being stored at −80 °C for 10 days. Post-preparative stability study was conducted by re-analyzing samples (kept in auto-sampler vial at room temperature) 24 h later. The stability of 3,4-DMS was assessed in the same way. Samples were considered stable if analytical responses were within 100% ± 15% of corresponding freshly prepared samples.

[5] = Rat liver microsome metabolic stability; format: in vitro ADME, Sprague-Dawley rat; settings: for half-life at 0.6 µg/mL: Sprague-Dawley, pH 7.4, in the presence of NADPH, 37 °C; for half-life at 0.6 µg/mL / compound remained after microsomal incubation: rat liver microsomes; for stability in acetonitrile-inactivated microsomes: acetonitrile-inactivated microsomes (chemical stability); for compound remained after microsomal incubation: in the absence of NADPH, 45 min incubation
Method: RLM metabolic stabilities of 2,3-DMS and 3,4-DMS were examined by mixing Sprague-Dawley RLM with potassium phosphate buffer (pH = 7.4), NADPH regenerating solution B and either compounds to achieve a final compound concentration of 0.6 µg/mL. Negative control was set up, using Milli-Q water in place of NADPH. Chemical stability of compound in inactivated RLM was checked using similar system with acetonitrile/Milli-Q mixture instead of phosphate buffe.
Pre-incubation was done in 37 °C water bath for 5 min before NADPH A was added to initiate reaction. Aliquots were drawn at 0, 5, 15, 25, 35 and 45 min and quenched using ice cold trans-stilbene–acetonitrile working solution. Chemical stability was monitored at 0, 25 and 45 min. The samples were further processed for HPLC analysis as described above.
To assess extent of metabolism, percentage of compound remaining at each time point with respect to 0 min was calculated. Mean and standard deviation was obtained from column statistics using GraphPad Prism 5, version 5.03 for Windows, via raw means from the six replicates of each setup. Elimination half-lives were obtained from non-linear regression via one-phase exponential decay, where x was time in minutes, y was percentage remaining with respect to 0 min and a weighting factor of 1/y^2 was used.

[6] = Intravenous pharmacokinetics in Sprague-Dawley rats; format: in vivo; settings: intravenous 4 mg/kg; for plasma level relative to LLOQ (10 ng/mL) over sampling period: sampling up to 660 min; for B / α / β / A: two-compartment model; for A: HP-β-CD formulation; for AUC(0-t) / clearance / Vd / half-life: male, Sprague-Dawley, rat, plasma; for clearance: read-out: Cl (clearance); for Vd: read-out: Vc (volume of distribution of the central compartment); for half-life: read-out: t1/2 λZ (terminal elimination half-life)
Method: (§2) This animal model has been used to investigate the pharmacokinetics of various stilbenes. The animal handling protocol was reviewed and approved by the Institutional Animal Care and Use Committee of the National University of Singapore (NUS). All animal experiments were carried out in Comparative Medicine Centre of NUS. Sprague-Dawley rats (male, 346 ± 18 g, bred by Centre for Animal Resources, NUS) were maintained on a 12 h light/dark cycle with free access to food and water. Polyethylene tube (inner diameter (I.D.) 0.58 mm, outside diameter (O.D.) 0.965 mm, Becton Dickinson, Sparks, MD, USA) was implanted into the right jugular vein under anaesthesia on the day before pharmacokinetic study. This catheter was used for intravenous drug administration as well as for blood sampling.
(§3) Twenty-two rats were divided into four groups. Group 1 and Group 2 (n = 5) received single intravenous bolus dose (4 mg/kg) of 2,3-DMS and 3,4-DMS respectively. Serial blood samples were collected before dosing (0 min) and at 5, 15, 30, 60, 90, 120, 180, 300, 480 and 660 min post-dosing. Group 3 and Group 4 (n = 6) received single oral dose (10 mg/kg) of 2,3-DMS and 3,4-DMS respectively through oral gavage and serial blood samples were collected before dosing (0 min) and at 15, 30, 45, 60, 90, 120, 180, 300, 480 and 660 min post-dosing. 0.3 mL heparin-saline (10 I.U./mL) was used to flush the cannular after each intravenous injection or blood sampling to maintain its patency. Blood samples were centrifuged at 3500 g at 4 °C for 5 min and plasma was collected and stored at −80 °C.
(§4) Pharmacokinetic parameters were derived using WinNonlin standard version 1.0 (Scientific Consulting Inc., Apex, NC, USA). […] Plasma exposure (area under the plasma concentration-time curve from 0 min to last measurable point (AUC0→last)) in rats receiving intravenous administration was calculated by the linear/log trapezoidal rule while the linear trapezoidal rule was used to calculate the plasma exposure in rats receiving oral administration. Clearance (Cl0→last), mean transit time (MTT0→last) and terminal half-life (t1/2 λZ) were calculated using non-compartmental analysis. Maximal plasma concentration (Cmax) and the time required to reach (tmax) were from direct experimental observations. Absolute oral bioavailability (F) of 2,3-DMS was calculated through reported method.

[7] = Oral pharmacokinetics in Sprague-Dawley rats; format: in vivo; settings: for post-dosing plasma samples above LLOQ (10 ng/mL): six rats
Method: as §2, §3, §4

remaining at 192 h, 1 mg/mL [2] | remaining at 25 ng/mL [3] | remaining at 400 ng/mL [3] | remaining at 1400 ng/mL [3] | remaining at 6 h, 25 ng/mL [3] | remaining at 6 h, 400 ng/mL [3] | remaining at 6 h, 1400 ng/mL [3] | remaining at 240 h, 25 ng/mL [3] | remaining at 240 h, 400 ng/mL [3] | remaining at 240 h, 1400 ng/mL [3] | remaining at 24 h, 25 ng/mL [4] | remaining at 24 h, 400 ng/mL [4] | remaining at 24 h, 1400 ng/mL [4] | half-life at 0.6 µg/mL [5] | stability in acetonitrile-inactivated microsomes [5] | compound remained after microsomal incubation [5] | B [6] | α [6] | SMILES | oral bioavailability (in words) [1] | plasma level relative to LLOQ (10 ng/mL) over sampling period [6] | other results
 |  |  |  |  |  |  |  |  |  |  |  |  |  |  |  |  |  | COc1ccc(/C=C/c2cc(OC)cc(OC)c2)cc1 [3,5,4'-trimethoxysilbene, trans-3,5,4'-trimethoxystilbene] | excellent or quite good oral bioavailability |  | 
 |  |  |  |  |  |  |  |  |  |  |  |  |  |  |  |  |  | COc1cc(C=Cc2cc(OC)c(OC)c(OC)c2)cc(OC)c1 [3,4,5,3',5'-pentamethoxystilbene] | excellent or quite good oral bioavailability |  | 
98.1 ± 2.1% | 102 ± 4.5% | 93.2 ± 1.2% | 91.8 ± 2.6% | 94.9 ± 4.4% | 95.5 ± 1.1% | 95.4 ± 0.6% | 107 ± 6.6% | 96.6 ± 4.7% | 93.5 ± 4.1% | 97.2 ± 2.5% | 100.1 ± 0.5% | 100.6 ± 0.7% | 0.237 h | good stability | 46.6% ± 4.6% | 135.6 ± 40.6 ng/mL | 5.02 ± 1.76 10^−2 × min^−1 | COc1cccc(/C=C/c2ccccc2)c1OC [2,3-DMS, trans-2,3-Dimethoxystilbene] |  | remained quantifiable throughout our sampling period | MTT0→last (mean transit time) [6]: 131.0 ± 4.5 min; β [6]: 3.08 ± 0.73 10^−3 × min^−1; A [6]: 1384.1 ± 251.4 ng/mL; AUC(0-t) [6]: 1160 ng·h/mL; clearance [6]: 52 ± 7 mL/min/kg; Vd [6]: 2.71 ± 0.51 L/kg; half-life [6]: 4.81 ± 1.55 h; Cmax ([7]; male, Sprague-Dawley, rat, plasma, oral 10 mg/kg): 37.5 ± 23.7 ng/mL; bioavailability ([7]; male, Sprague-Dawley, rat, plasma, oral 10 mg/kg vs intravenous 4 mg/kg, read-out: F (oral bioavailability)): 2.22 ± 2.13%; AUC(0-t) ([7]; male, Sprague-Dawley, rat, plasma, oral 10 mg/kg, HP-β-CD formulation): 64.3 ng·h/mL; MTT0→last (mean transit time) ([7]; oral 10 mg/kg): 83.2 ± 67.4 min; post-dosing plasma samples above LLOQ (10 ng/mL) ([7]; oral 10 mg/kg): 32 out of 60
96.7 ± 2.7% | 106 ± 5.2% | 93.4 ± 0.7% | 92.4 ± 2.4% | 104 ± 6.6% | 94.7 ± 0.7% | 96.2 ± 0.4% | 91 ± 13.8% | 93.6 ± 4.6% | 93 ± 3.7% | 98.1 ± 5.7% | 98.1 ± 1.8% | 100.1 ± 0.6% | 0.277 h | good stability | 78.1% ± 5.3% | 55.9 ± 26.1 ng/mL | 5.25 ± 1.45 10^−2 × min^−1 | COc1ccc(/C=C/c2ccccc2)cc1OC [3,4-DMS, trans-3,4-dimethoxystilbene] |  | became unmeasurable at 11 h | clearance relative to rat hepatic blood flow [6]: three-fold; β [6]: 3.85 ± 2.45 10^−3 × min^−1; A [6]: 702.7 ± 148.5 ng/mL; MTT0→last (mean transit time) ([6]; 4 mg/kg): 61.4 ± 27.1 min; AUC(0-t) [6]: 427 ng·h/mL; clearance [6]: 143 ± 40.5 mL/min/kg; Vd [6]: 5.58 ± 1.73 L/kg; half-life [6]: 3.22 ± 2.05 h; post-dosing plasma samples above LLOQ (10 ng/mL) ([7]; oral 10 mg/kg): three post-dosing samples collected from one out of six rats; oral bioavailability (in words) ([7]; oral 10 mg/kg, 10 mg/kg): even poorer than 2,3-DMS; also recorded: almost nil
 |  |  |  |  |  |  |  |  |  |  |  |  |  |  |  |  |  | Oc1cc(O)cc(/C=C/c2ccccc2)c1 [pinosylvine, trans-3,5-dihydroxystilbene] | much poorer than resveratrol |  | 
 |  |  |  |  |  |  |  |  |  |  |  |  |  |  |  |  |  | COc1cc(/C=C/c2ccc(OC)c(OC)c2)cc(OC)c1 [trans-3,5,3',4'-tetramethoxystilbene] | excellent or quite good oral bioavailability |  | 
